Drawing on patent publication US20240150377A1, “MODULATORS OF CYSTIC FIBROSIS TRANSMEMBRANE CONDUCTANCE REGULATOR” (VERTEX PHARMACEUTICALS INCORPORATED, priority 2020, published 2024), this text covers activation, EC50 and Emax for 36 molecules.

SMILES strings stand for the structures. Read-outs that look alike come from different tables or passages of the source.

In this test the target is T1, CFTR (Homo sapiens, UniProt P13569, DEL508-508).
T1 construct: endogenous in cells; host or cells: primary human bronchial epithelial cells from CF subjects (F508del/MF-HBE), differentiated at air-liquid interface
T1 sequence (P13569 with tags, fused parts or gaps DEL508-508): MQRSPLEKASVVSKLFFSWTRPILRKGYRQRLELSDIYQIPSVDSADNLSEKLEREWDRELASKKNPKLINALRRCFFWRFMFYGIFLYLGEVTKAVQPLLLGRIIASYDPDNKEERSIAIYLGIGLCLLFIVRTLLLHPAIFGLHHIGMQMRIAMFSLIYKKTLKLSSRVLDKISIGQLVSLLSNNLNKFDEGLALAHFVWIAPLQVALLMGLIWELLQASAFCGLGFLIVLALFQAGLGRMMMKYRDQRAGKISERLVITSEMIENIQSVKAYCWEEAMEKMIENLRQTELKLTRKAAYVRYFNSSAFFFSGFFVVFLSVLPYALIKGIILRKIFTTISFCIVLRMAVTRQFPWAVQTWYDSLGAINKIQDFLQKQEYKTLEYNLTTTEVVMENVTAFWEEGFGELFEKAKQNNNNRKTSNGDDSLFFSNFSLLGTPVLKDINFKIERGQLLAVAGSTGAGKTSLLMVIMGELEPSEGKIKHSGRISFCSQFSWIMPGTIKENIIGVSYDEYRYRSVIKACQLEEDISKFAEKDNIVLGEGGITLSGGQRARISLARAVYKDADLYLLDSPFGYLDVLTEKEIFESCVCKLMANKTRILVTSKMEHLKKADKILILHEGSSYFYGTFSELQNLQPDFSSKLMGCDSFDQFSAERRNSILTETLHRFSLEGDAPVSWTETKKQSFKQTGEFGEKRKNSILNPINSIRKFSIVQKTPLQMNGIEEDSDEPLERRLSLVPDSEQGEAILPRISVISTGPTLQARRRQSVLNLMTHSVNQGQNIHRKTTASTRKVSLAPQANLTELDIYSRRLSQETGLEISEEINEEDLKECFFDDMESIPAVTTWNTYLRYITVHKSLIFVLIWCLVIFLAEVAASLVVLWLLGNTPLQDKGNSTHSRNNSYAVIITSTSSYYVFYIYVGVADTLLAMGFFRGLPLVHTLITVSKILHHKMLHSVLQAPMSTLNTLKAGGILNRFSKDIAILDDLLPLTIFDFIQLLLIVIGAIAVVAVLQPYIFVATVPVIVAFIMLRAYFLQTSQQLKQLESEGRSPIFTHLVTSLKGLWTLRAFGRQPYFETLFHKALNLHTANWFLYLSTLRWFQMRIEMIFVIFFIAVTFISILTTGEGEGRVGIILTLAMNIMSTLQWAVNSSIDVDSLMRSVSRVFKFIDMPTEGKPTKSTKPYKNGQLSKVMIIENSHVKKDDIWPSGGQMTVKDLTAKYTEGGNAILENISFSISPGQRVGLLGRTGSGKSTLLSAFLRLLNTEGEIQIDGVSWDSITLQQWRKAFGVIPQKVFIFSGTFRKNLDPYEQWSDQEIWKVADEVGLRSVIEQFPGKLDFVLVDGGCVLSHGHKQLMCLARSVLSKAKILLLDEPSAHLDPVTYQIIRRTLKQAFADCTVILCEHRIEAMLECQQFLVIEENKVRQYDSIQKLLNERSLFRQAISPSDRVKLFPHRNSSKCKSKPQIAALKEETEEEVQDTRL
Nature of the test: HBE assay: Ussing chamber assay of CFTR-mediated short-circuit currents. The test is classed as cell-based. Summed up: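 CFTR-mediated Isc (μA/cm²) equals the peak response to apical 20 μM forskolin minus the residual after a 20 μM each BPO/GlyH-101/CFTR inhibitor 172 cocktail, recorded in Ussing chambers at Vhold 0 mV, 37 °C, pH 7.4, with 30 μM apical amiloride. Cells were F508del/MF HBE cultures preincubated 18-24 h with corrector (concentration range or 10 μM) plus 1 μM ivacaftor in 20% human serum.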

The mark [1] stands for this setting: Table 13, at 10 μM, read-out: HBE Activity at 10 μM (%).
Where [2] appears, read: HBE assay, 10 μM, read-out: HBE Activity at 10 μM (%).
Where [3] appears, read: Table 11, read-out: HBE Max Activity (%).
[4] abbreviates: Table 10, read-out: HBE Max activity (%).
Setting [5] is: Table 12, at 10 μM, read-out: HBE Activity at 10 μM (%).
The mark [6] stands for this setting: Table 12, read-out: HBE Max Activity (%).
Where [7] appears, read: Table 13, read-out: HBE Max Activity (%).
[8] abbreviates: HBE assay, read-out: HBE Max activity (%).

Take `Cc1cccc(C)c1-c1cc2nc(n1)NS(=O)(=O)c1cccc(c1)C(=O)N(Cc1ccc(C(C)(C)C)cc1O)[C@H](CC(C)(C)C)CO2` [Compound 433]: the activation at 10 µM under setting [1] was above 600%. Still for that read-out and setting: to `Cc1cccc(C)c1-c1cc2nc(n1)NS(=O)(=O)c1cccc(c1)C(=O)N(CC(=O)N(C)CCN1CCOCC1)[C@H](CC(C)(C)C)CO2` [Compound 226] belongs above 600%. With `Cc1cccc(C)c1-c1cc2nc(n1)NS(=O)(=O)c1cccc(c1)C(=O)N(Cc1cccc(N3CCC[C@H]3C3CC3)n1)[C@H](CC1CC1)CO2` [Compound 1501], the activation at 10 µM under setting [2] is above 60%. For the molecule `Cc1cccc(C)c1-c1cc2nc(n1)NS(=O)(=O)c1cccc(c1)C(=O)N(CC(=O)N(C)CC1CCCCO1)[C@H](CC(C)(C)C)CO2` (some centres unmarked) [Compound 225], under setting [1], the activation at 10 µM is above 600%.

For orientation: EC50 means the concentration needed to bring the measured effect to its halfway point. `Cc1cccc(C)c1-c1cc2nc(n1)NS(=O)(=O)c1cccc(c1)C(=O)N(Cc1cnc(N3CCC(C)(C)CC3)cn1)[C@H](CC(C)(C)C)CO2` [Compound 608]: the EC50 (Table 11, read-out: HBE EC50) was below 1 µM. Further, under setting [3], the Emax was above 60%. As to `Cc1cccc(C)c1-c1cc2nc(n1)NS(=O)(=O)c1cccc(c1)C(=O)N(CC1CCCN(CCC(C)(C)C)C1=O)[C@H](CC(C)(C)C)CO2` (some centres unmarked) [Compound 655], the EC50 (Table 11, read-out: HBE EC50) was below 1 µM. Take `CNc1ccnc(CN2C(=O)c3cccc(c3)S(=O)(=O)Nc3nc(cc(-c4c(C)cccc4C)n3)OC[C@H]2CC(C)(C)C)n1` [Compound 647]: for the setting “Table 11, read-out: HBE EC50”, the EC50 was below 1 µM. Besides, the Emax under setting [3] was above 60%.

`Cc1cccc(C)c1-c1cc2nc(n1)NS(=O)(=O)c1cccc(c1)C(=O)N(Cc1ccn(C(C)C)n1)[C@H](CC(C)(C)C)CO2` [Compound 480]: under setting [4], the Emax is above 60%. On to `Cc1cccc(C)c1-c1cc2nc(n1)NS(=O)(=O)c1cccc(c1)C(=O)N(Cc1cccc(C3CCC(C)(C)CC3)n1)[C@H](CC(C)(C)C)CO2` [Compound 727], for which the EC50 (Table 11, read-out: HBE EC50) was below 1 µM. Besides, the Emax under setting [3] is above 60%.

Turning to `Cc1cccc(C)c1-c1cc2nc(n1)NS(=O)(=O)c1cccc(c1)C(=O)N(Cc1nc(C(C)C)c[nH]1)[C@H](CC(C)(C)C)CO2` [Compound 264], the activation at 10 µM under setting [5] is below 30%. Further, the EC50 (Table 12, read-out: HBE EC50) is below 1 µM. The Emax under setting [6] is above 60%. On to `COc1ccc(F)c(CN2C(=O)c3cccc(c3)S(=O)(=O)Nc3nc(cc(-c4c(C)cccc4C)n3)OC[C@H]2CC(C)(C)C)n1` [Compound 1066], for which, where the note is “Table 13, read-out: HBE EC50”, the EC50 is below 1 µM. Also, the Emax under setting [7] was above 60%. Take `Cc1cccc(C)c1-c1cc2nc(n1)NS(=O)(=O)c1cccc(c1)C(=O)N(Cc1cccc(N3CCC[C@H]3C3CC3)n1)[C@H](CC(C)(C)C)CO2` [Compound 1497]: under “HBE EC50 (μM), HBE assay”, the EC50 is below 1 µM. Moreover, the Emax (read-out: HBE Max activity (%)) was above 60%. In the case of `Cc1cccc(C)c1-c1cc2nc(n1)NS(=O)(=O)c1cccc(c1)C(=O)N(Cc1ccc(C3CCCCC3)nc1)[C@H](CC(C)(C)C)CO2` [Compound 882], under setting [5], the activation at 10 µM is above 600%.

For `Cc1cc(OC(C)C)cnc1CN1C(=O)c2cccc(c2)S(=O)(=O)Nc2nc(cc(-c3c(C)cccc3C)n2)OC[C@H]1CC(C)(C)C` [Compound 1116], the EC50 (Table 13, read-out: HBE EC50) is below 1 µM. In addition, under setting [7], the Emax is above 60%. Take `CC(=O)N(C)c1cnc(CN2C(=O)c3cccc(c3)S(=O)(=O)Nc3nc(cc(-c4c(C)cccc4C)n3)OC[C@H]2CC(C)(C)C)nc1` [Compound 1516]: the activation at 10 µM under setting [2] is above 60%. Take `Cc1cccc(C)c1-c1cc(O)nc(NS(=O)(=O)c2cccc(C(=O)N(Cc3cccc(N4CCC[C@]4(C)C(=O)O)n3)[C@@H](C)CC(C)(C)C)c2)n1` [Compound 277]: the activation at 10 µM under setting [5] is above 600%. On to `Cc1cccc(C)c1-c1cc2nc(n1)NS(=O)(=O)c1cccc(c1)C(=O)N(Cc1ccnc(N3CCC[C@H]3C)n1)[C@H](CC(C)(C)C)CO2` [Compound 1449], for which the EC50 (HBE assay, read-out: HBE EC50) is below 1 µM. Besides, the Emax under setting [8] was above 60%.

Consider `Cc1cccc(C)c1-c1cc2nc(n1)NS(=O)(=O)c1cccc(c1)C(=O)N(Cc1ncccc1N(C)CC(C)(C)C)[C@H](CC(C)(C)C)CO2` [Compound 725], for which the EC50 (Table 11, read-out: HBE EC50) is below 1 µM. For the same molecule, under setting [3], the Emax was above 60%. For the molecule `Cc1cccc(C)c1-c1cc2nc(n1)NS(=O)(=O)c1cccc(c1)C(=O)N(Cc1nc3c(ccn3C(C)C)cc1F)[C@H](CC(C)(C)C)CO2` [Compound 1124], the EC50 (Table 13, read-out: HBE EC50) was below 1 µM. Also, the Emax under setting [7] is above 60%. As for `Cc1cccc(C)c1-c1cc2nc(n1)NS(=O)(=O)c1cccc(c1)C(=O)N(Cc1cncc(N3CC[C@@H]4COC[C@@H]43)n1)[C@H](CC(C)(C)C)CO2` [Compound 1540], under setting [2], the activation at 10 µM is above 60%. As for `Cc1cccc(C)c1-c1cc2nc(n1)NS(=O)(=O)c1cccc(c1)C(=O)N(Cc1nccc(N3CCOCC3)n1)[C@H](CC(C)(C)C)CO2` [Compound 651], where the note is “Table 11, read-out: HBE EC50”, the EC50 was below 1 µM. Under setting [3], the Emax is above 60%. For the molecule `Cc1cccc(C)c1-c1cc2nc(n1)NS(=O)(=O)c1cccc(c1)C(=O)N(Cc1ccc(N3CCC(C(=O)N(C)C)CC3)cn1)[C@H](CC(C)(C)C)CO2` [Compound 249], under setting [1], the activation at 10 µM was above 600%.

As to `Cc1cccc(C)c1-c1cc2nc(n1)NS(=O)(=O)c1cccc(c1)C(=O)N(Cc1ccc(N3CC4(CCOC4)C3)cn1)[C@H](CC(C)(C)C)CO2` [Compound 1055], under setting [1], the activation at 10 µM was above 600%. As for `Cc1cccc(C)c1-c1cc2nc(n1)NS(=O)(=O)c1cccc(c1)C(=O)N(CC1CC(C)(C)CO1)[C@H](CC(C)(C)C)CO2` (stereo partly drawn) [Compound 21, (11R)-12-[(4,4-Dimethyloxolan-2-yl)methyl]-6-(2,6-dimethylphenyl)-11-(2,2-dimethylpropyl)-9-oxa-2λ^6-thia-3,5,12,19-tetraazatricyclo[12.3.1.14,8]nonadeca-1(17),4(19),5,7,14(18),15-hexaene-2,2,13-trione], the activation at 10 µM (Table 11, at 10 μM, read-out: HBE Activity at 10 μM (%)) is above 60%. As to `COC1CCN(c2cnc(CN3C(=O)c4cccc(c4)S(=O)(=O)Nc4nc(cc(-c5c(C)cccc5C)n4)OC[C@H]3CC(C)(C)C)nc2)C1` (some centres unmarked) [Compound 599], the EC50 (Table 11, read-out: HBE EC50) lay within 1 to 3 µM. The Emax under setting [3] was above 60%. In the case of `Cc1cccc(C)c1-c1cc2nc(n1)NS(=O)(=O)c1cccc(n1)C(=O)N(Cc1ccc(N(C)CC(C)(C)C)cn1)[C@H](CC(C)(C)C)CO2` [Compound 1125], the EC50 (Table 13, read-out: HBE EC50) is 1 to 3 µM. Besides, under setting [7], the Emax is above 60%. Regarding `Cc1cccc(C)c1-c1cc2nc(n1)NS(=O)(=O)c1cccc(c1)C(=O)N(Cc1ncc(N3CCC[C@H]3C)cn1)[C@H](CC(C)(C)C)CO2` [Compound 572], the EC50 (Table 12, read-out: HBE EC50) is below 1 µM. Under setting [6], the Emax was above 60%. Turning to `Cc1cccc(C(C)C)c1-c1cc2nc(n1)NS(=O)(=O)c1cccc(c1)C(=O)N(Cc1ncc(OC(C)C)cn1)[C@H](CC(C)C)CO2` [Compound 241], the activation at 10 µM under setting [5] was above 600%.

With `Cc1cccc(C)c1-c1cc2nc(n1)NS(=O)(=O)c1cccc(c1)C(=O)N(Cc1cccc(NC3CCOCC3)n1)[C@H](CC(C)(C)C)CO2` [Compound 1419], the EC50 (HBE assay, read-out: HBE EC50) was below 1 µM. Besides, the Emax under setting [8] was above 60%. On to `Cc1cccc(C)c1-c1cc2nc(n1)NS(=O)(=O)c1cccc(c1)C(=O)N(Cc1cccc(N3CCC(C)(C)CC3)n1)[C@H](CC(C)(C)C)CO2` [Compound 474], for which the EC50 (Table 11, read-out: HBE EC50) is below 1 µM. Under setting [3], the Emax was above 60%. For `Cc1cccc(C)c1-c1cc2nc(n1)NS(=O)(=O)c1cccc(c1)C(=O)N(Cc1ncc(N3CCC4(CC3)CC4)cn1)[C@H](CC(C)(C)C)CO2` [Compound 708], in that order: 1 to 3 µM and above 60%.

For `CCOc1cnc(CN2C(=O)c3cccc(c3)S(=O)(=O)Nc3nc(cc(-c4c(C)cccc4C)n3)OC[C@H]2CC(C)(C)C)nc1` [Compound 720], the EC50 (Table 11, read-out: HBE EC50) is below 1 µM. Further, the Emax under setting [3] was above 60%. In the case of `COCCN(C)c1nccc(CN2C(=O)c3cccc(c3)S(=O)(=O)Nc3nc(cc(-c4c(C)cccc4C)n3)OC[C@H]2CC(C)(C)C)n1` [Compound 600], the EC50 (Table 11, read-out: HBE EC50) was below 1 µM. Also, the Emax under setting [3] was above 60%.

As for `Cc1cccc(C)c1-c1cc2nc(n1)NS(=O)(=O)c1cccc(c1)C(=O)N(Cc1ncccc1CCC(C)(C)ON)[C@H](CC(C)(C)C)CO2` [Compound 771], the activation at 10 µM (Table 10, at 10 μM, read-out: HBE activity at 10 (μM) (%)) is above 60%. Further, where the note is “Table 10, read-out: HBE EC50”, the EC50 was below 1 µM. Further, the Emax under setting [4] is above 60%. Consider `COC[C@]1(C)CCCN1c1cccc(CN2C(=O)c3cccc(c3)S(=O)(=O)Nc3nc(cc(-c4c(C)cccc4C)n3)OC[C@H]2CC(C)(C)C)n1` [Compound 1511], for which, under setting [2], the activation at 10 µM was above 60%. As to `Cc1cccc(C)c1-c1cc2nc(n1)NS(=O)(=O)c1cccc(c1)C(=O)N(Cc1ncc(CC(C)C)cn1)[C@H](CC(C)(C)C)CO2` [Compound 120, (11R)-6-(2,6-Dimethylphenyl)-11-(2,2-dimethylpropyl)-12-[(5-isobutylpyrimidin-2-yl)methyl]-2,2-dioxo-9-oxa-2λ^6-thia-3,5,12,19-tetrazatricyclo[12.3.1.14,8]nonadeca-1(18),4(19),5,7,14,16-hexaen-13-one], the EC50 (Table 11, read-out: HBE EC50) is below 1 µM. Also, the Emax under setting [3] was above 60%.
